Legend:
[1] = system: Rice Brown Planthopper (Nilaparvata lugens); assay: Pest control test (stem and leaf soaking treatment) to rice brown planthopper; type: in vivo; conditions: 800 ppm, rice seedlings soaked, 25° C., five days after treatment
Method: Biological Test Example 2: Pest Control Test (Stem and Leaf Soaking Treatment) to Rice Brown Planthopper (Nilaparvata lugens)
Ten rice seedlings were soaked in 20 mL of the test compound solution diluted to 800 ppm and air-dried. After air drying, the rice seedings were hold in a glass cylinder (inner diameter 4.5 cm×14 cm) with urethane and stood on the plastic cup in which 40 mL of water was put. The […] larva of rice brown planthopper was released there, covered with medicine package, and kept in a constant temperature room at 25° C. In five days after treatment, life and death were observed and the mortality was calculated.

[2] = system: Twospotted Spider Mite (Tetranychus urticae); assay: Pest control test (leaf soaking treatment) to twospotted spider mite; type: in vivo; conditions: 800 ppm, bean leaf with eggs soaked about 30 seconds, 25° C., seven days after treatment
Method: Biological Test Example 1: Pest Control Test (Leaf Soaking Treatment) to Twospotted Spider Mite (Tetranychus urticae)
A bean leaf was cut to a diameter of 3.5 cm and placed on absorbent cotton moistened with water. Five adult females of the twospotted spider mite were released on the bean leaf and laid eggs for 24 hours, and then the adults were removed. This bean leaf was soaked for about 30 seconds in 20 mL of the dilution solution of the test compound diluted to 800 ppm. After air-drying, the bean leaf was put in a plastic cup together with absorbent cotton, covered, and kept in a constant temperature room at 25° C. In seven days after treatment, life and death were observed and the ovicidal rate was calculated.

| Compound | control effect (mortality) [1] [%] | pest control effect (ovicidal rate) [2] [%] |
| --- | --- | --- |
| N#CCCNc1ccccn1 [compound (1′), 3-(Pyridyl-2-amino)propionitrile] | 50 |  |
| N#CCCN(C=O)c1ccccn1 [compound (4′), N-(2-cyanoethyl)-N-(2-pyridyl)formamide] |  | 100 |

Source: patent US20200062710A1, “Method For Producing 3-(Pyridyl-2-Amino)Propionitrile And Analogues Thereof” (Nipppon Kayaku Kabushiki Kaisha, priority 2016, published 2020)
